Measurements published in US10869924B2, “PD-L1 antagonist combination treatments” (MERCK PATENT GMBH, priority 2015, dated 2020).

Test system: MC38 colon carcinoma
Test: Subcutaneous MC38 colon carcinoma model, anti-4-1BB and avelumab (Example 3)
Type: in vivo
Details: anti-4-1BB 0.1 mg/mL, avelumab 1 mg/mL, 0.2 mL per mouse ip, 3 doses 3 to 4 days apart, C57BL/6 mice
Description: Six (6)- to 8-week old female C57BL/6 mice were purchased from the Jackson Laboratories. All animals were housed in a pathogen free vivarium facility at Rinat and experiments were conducted according to the protocols in accordance with the Institutional Animal Care and Use Committee (IACUC) guidelines.
The B16F10 melanoma cell line was purchased from American Type Culture Collection (ATCC). The MC38 colon carcinoma cell line was kindly provided by Dr. Antoni Ribas at University of California, Los Angeles, Calif. Cells were cultured in Dulbecco's Modified Eagle's Medium (DMEM) supplemented with 10% fetal bovine serum (FBS), 2 mM L-glutamine at 37° C. in 5% carbon dioxide (CO2), and IMPACT-tested for pathogens at Research Animal Diagnostic Laboratory (RADIL) (Columbia, Mo.). Pathogen-free cells growing in an exponential growth phase were harvested and used for tumor inoculation.
Therapeutic mouse anti-mouse 4-1BB mAb (mouse immunoglobulin G1 [mIgG1]), derived from the parental clone MAB9371 (R&D Systems), was prepared in-house. Avelumab was provided by Merck Serono. Isotype control mIgG1 (clone: MOPC-21) was purchased from BioXcell. Human IgG1 was prepared in-house. Anti-4-1BB and avelumab were diluted to concentrations of 0.1 mg/mL and 1 mg/mL, respectively, in phosphate buffered saline (PBS) (Life Technologies), and dosed at 0.2 mL per mouse intraperitoneally (ip) for 3 doses 3 to 4 days apart.
C57BL/6 mice were inoculated subcutaneously at the right flank with 0.2×10^6 B16F10 or 0.5×10^6 MC38 cells in 0.1 mL of serum-free DMEM. When tumors reached target size, mice were randomized into treatment groups. Treatment was started on the same day as randomization. Tumor size was measured twice weekly in 2 dimensions using a caliper, and the volume was expressed in cubic millimeters using the formula: V=0.5 L×W^2 where L is the longest diameter of the tumor and W is the diameter perpendicular to L. Body weight was recorded weekly.
Results were expressed as mean±SEM. Statistical analyses were performed using GraphPad Prism 6.0. One-way or 2-way ANOVA was applied to compare the statistical differences among multiple groups relative to the isotype control. P<0.05 was considered as significant difference.
In the MC38 colon carcinoma model, the average starting tumor size was approximately 60 mm^3 (range 41-92 mm^3; n=10 animals per group) (Table 6). At the end of study (Day 23 post tumor implantation), the average tumor volumes of isotype, anti-4-1BB alone, avelumab alone, and anti-4-1BB antibody/avelumab combination groups were 1177±252 mm^3, 1093±183 mm^3, 901±206 mm^3, and 530±190 mm^3, respectively (Table 6). The reduction in tumor size by the combination treatment was significant, compared to the isotype control (p<0.001) and 4-1BB alone groups (p<0.01), but not to the avelumab group (p>0.05) (Table 6).

## Avelumab: fully human mAb of the IgG1 isotype that specifically targets and blocks PD-L1
Day 7 post tumor implantation (starting tumor size)
  Tumor Measurements of Subcutaneous MC38 Colon Carcinoma, Mean tumor volume: 63 mm^3
Day 10 post tumor implantation
  Tumor Measurements of Subcutaneous MC38 Colon Carcinoma, Mean tumor volume: 127 mm^3
Day 14 post tumor implantation
  Tumor Measurements of Subcutaneous MC38 Colon Carcinoma, Mean tumor volume: 254 mm^3
Day 16 post tumor implantation
  Tumor Measurements of Subcutaneous MC38 Colon Carcinoma, Mean tumor volume: 384 mm^3
Day 18 post tumor implantation
  Tumor Measurements of Subcutaneous MC38 Colon Carcinoma, Mean tumor volume: 523 mm^3
Day 21 post tumor implantation
  Tumor Measurements of Subcutaneous MC38 Colon Carcinoma, Mean tumor volume: 714 mm^3
Day 23 post tumor implantation (end of study)
  Tumor Measurements of Subcutaneous MC38 Colon Carcinoma, Mean tumor volume: 901 mm^3
Day 23 post tumor implantation (end of study), listed as avelumab
  Tumor Measurements of Subcutaneous MC38 Colon Carcinoma, Mean tumor volume: 901±206 mm^3
